The subject of assay [1] is human tongue squamous cell carcinoma cell line Cal27. The assay is described as follows: MTT cell viability assay, Cal27. The following applies: Homo sapiens, read-out: Antiproliferative Effect IC50 Cal27. Format: cell-based. In general terms: Tetrazolium dyes change colour on reduction, which living cells bring about.
For assay [2], the system named is human primary glioblastoma cell line U87. The assay is described as follows: MTT cell viability assay, U87. Format: cell-based. Conditions: 72 h, read-out: Antiproliferative Effect IC50 U87.
Assay [3] deals with HDAC1 (Homo sapiens, UniProt Q13547). Description: In-vitro human HDAC1 fluorogenic inhibition assay (ZMAL substrate). Format: biochemical.
Sequence of HDAC1 (Q13547 whole entry): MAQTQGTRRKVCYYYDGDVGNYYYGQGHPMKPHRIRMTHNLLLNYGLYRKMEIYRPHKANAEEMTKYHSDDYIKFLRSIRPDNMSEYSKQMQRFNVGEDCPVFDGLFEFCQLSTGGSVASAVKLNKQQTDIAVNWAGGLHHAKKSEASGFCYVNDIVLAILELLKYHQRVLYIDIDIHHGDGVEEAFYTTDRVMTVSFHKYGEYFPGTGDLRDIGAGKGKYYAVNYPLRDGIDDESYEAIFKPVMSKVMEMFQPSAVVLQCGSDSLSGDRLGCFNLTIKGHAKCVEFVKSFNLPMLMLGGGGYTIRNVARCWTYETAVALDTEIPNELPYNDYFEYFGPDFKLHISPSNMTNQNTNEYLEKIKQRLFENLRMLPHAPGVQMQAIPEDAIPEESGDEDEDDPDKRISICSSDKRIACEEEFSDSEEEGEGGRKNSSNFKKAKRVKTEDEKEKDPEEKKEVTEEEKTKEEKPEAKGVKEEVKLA
For assay [4], the target named is T1, HDAC6 (Homo sapiens, UniProt Q9UBN7).
T1 sequence (Q9UBN7 1-1215): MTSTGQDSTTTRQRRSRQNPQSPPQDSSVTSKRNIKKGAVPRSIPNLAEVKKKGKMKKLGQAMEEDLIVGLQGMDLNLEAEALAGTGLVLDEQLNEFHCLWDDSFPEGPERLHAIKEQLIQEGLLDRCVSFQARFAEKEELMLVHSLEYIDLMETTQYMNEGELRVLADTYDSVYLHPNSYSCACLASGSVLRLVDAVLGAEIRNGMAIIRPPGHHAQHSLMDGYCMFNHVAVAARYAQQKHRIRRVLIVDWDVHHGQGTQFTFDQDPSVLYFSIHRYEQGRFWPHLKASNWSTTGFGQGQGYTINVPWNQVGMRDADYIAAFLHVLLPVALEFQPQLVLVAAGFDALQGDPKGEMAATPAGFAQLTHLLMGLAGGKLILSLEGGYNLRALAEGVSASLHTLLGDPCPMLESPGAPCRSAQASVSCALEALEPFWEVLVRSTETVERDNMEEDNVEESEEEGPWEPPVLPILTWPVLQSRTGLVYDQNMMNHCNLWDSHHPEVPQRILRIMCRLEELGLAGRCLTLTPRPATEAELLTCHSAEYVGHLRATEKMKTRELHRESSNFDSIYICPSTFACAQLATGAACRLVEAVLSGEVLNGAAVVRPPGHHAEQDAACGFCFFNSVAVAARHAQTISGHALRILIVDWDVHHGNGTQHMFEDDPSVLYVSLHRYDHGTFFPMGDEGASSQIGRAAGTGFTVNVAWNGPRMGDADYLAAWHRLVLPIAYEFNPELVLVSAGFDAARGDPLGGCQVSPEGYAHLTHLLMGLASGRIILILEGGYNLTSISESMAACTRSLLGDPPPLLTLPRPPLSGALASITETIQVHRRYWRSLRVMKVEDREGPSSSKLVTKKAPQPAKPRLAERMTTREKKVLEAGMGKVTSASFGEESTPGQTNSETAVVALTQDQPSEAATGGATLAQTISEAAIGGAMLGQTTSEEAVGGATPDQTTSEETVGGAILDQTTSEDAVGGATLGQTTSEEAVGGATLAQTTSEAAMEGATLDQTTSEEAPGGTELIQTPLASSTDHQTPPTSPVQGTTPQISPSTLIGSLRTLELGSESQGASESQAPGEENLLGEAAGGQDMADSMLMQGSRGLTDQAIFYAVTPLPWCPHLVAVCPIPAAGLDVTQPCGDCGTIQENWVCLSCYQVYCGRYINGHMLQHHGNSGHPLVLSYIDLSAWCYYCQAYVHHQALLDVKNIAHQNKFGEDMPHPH
The assay is described as follows: In-vitro human HDAC6 fluorogenic inhibition assay (ZMAL substrate). The format is biochemical.

Assay [5] concerns human primary glioblastoma cell line U251. The assay is described as follows: MTT cell viability assay, U251. Format: cell-based. Conditions: for IC50: Homo sapiens, read-out: Antiproliferative Effect IC50 U251.
[6] abbreviates: CAL-27, MTT assay, 72 h, n≥3, each in triplicate wells.
[7] abbreviates: MTT assay, n≥3, each in triplicate wells.
The mark [8] stands for this setting: fluorogenic assay, n≥2, each in duplicate wells, read-out: Target Inhibition IC50 HDAC1.
The mark [9] stands for this setting: fluorogenic assay, n≥2, each in duplicate wells, read-out: Target Inhibition IC50 HDAC6.
Setting [10] is: U-251, MTT assay, 72 h, n≥3, each in triplicate wells, n.e.: no effect up to 100 μM.

As a reminder, the IC50 is the concentration that inhibits the measured activity by half.

Where two headings read alike, the source gives them in different places.

In the case of `O=C(CCCCCCNC(=O)c1ncn2c(=O)n(CCCl)nnc12)NO` [Compound 3 j], the IC50 was found to be 9.9 ± 1.24 µM in assay [1] (setting [6]); 122 ± 56 µM in assay [2] (setting [7]); 143 ± 5 nM in assay [3] (setting [8]); 38 ± 4 nM in assay [4] (setting [9]); 48.2 ± 7.35 µM in assay [5] (setting [10]).

Consider `Cn1nnc2c(C(N)=O)ncn2c1=O` [TMZ, temozolomide, reference compound], for which the half-maximal inhibitory concentration (IC50) in assay [1] (setting [6]) turned out to be 56.8 ± 5.05 µM; in assay [2] (setting [7]) it was 144 ± 15.6 µM; in assay [5] (setting [10]), 457 ± 57.3 µM.

Regarding `Cn1nnc2c(C(=O)NCCCC(=O)NO)ncn2c1=O` [Compound 3 d], the IC50 in assay [1] (setting [6]) was found to be 97.1 ± 16.3 µM; in assay [2] (setting [7]), 323 ± 107 µM; in assay [3] (setting [8]) it was 35100 ± 5320 nM; in assay [4] (setting [9]), 4990 ± 129 nM. Further, in assay [5] (MTT assay, 72 h, n≥3, each in triplicate wells, n.e.: no effect up to 100 μM), the “Antiproliferative Effect IC50 U251” value is listed as “n.e”.

As to `O=C(CCCNC(=O)CCCc1ccc(N(CCCl)CCCl)cc1)NO` [Compound 3 f], the IC50 is 8.67 ± 1.31 µM in assay [1] (CAL-27, 72 h); 46.1 ± 5.71 µM in assay [2]; 8210 ± 183 nM in assay [3]; 4600 ± 82 nM in assay [4]; 20.1 ± 2.41 µM in assay [5] (U-251, 72 h).

Regarding `Cn1c(CCCCCCC(=O)NO)nc2cc(N(CCCl)CCCl)ccc21` [tinostamustine, reference compound], the IC50 in assay [1] (CAL-27, 72 h) was 2.94 ± 0.07 µM; in assay [2] it was 8.32 ± 0.55 µM; in assay [3], 47 ± 3 nM; in assay [4] it was 11 ± 1 nM; in assay [5] (U-251, 72 h) it was 10.2 ± 0.62 µM.

Regarding `O=C(CCCNC(=O)c1ncn2c(=O)n(CCCl)nnc12)NO` [Compound 3 e], the IC50 in assay [1] (setting [6]) was 87.8 ± 9.52 µM; in assay [2] (setting [7]) it was 413 ± 77.7 µM; in assay [3] (setting [8]) it was 16200 ± 70 nM; in assay [4] (setting [9]) it was 2370 ± 86 nM; in assay [5] (setting [10]), 461 ± 89.9 µM.

With `Cn1nnc2c(C(=O)NCCCCCCC(=O)NO)ncn2c1=O` [Compound 3 i], the IC50 worked out at 10.2 ± 1.54 µM in assay [1] (setting [6]); 166 ± 33.6 µM in assay [2] (setting [7]); 161 ± 6 nM in assay [3] (setting [8]); 31 ± 2 nM in assay [4] (setting [9]); 86.2 ± 13.1 µM in assay [5] (setting [10]).

With `O=C(CCCCCCNC(=O)CCCc1ccc(N(CCCl)CCCl)cc1)NO` [Compound 3 k], the half-inhibitory concentration (IC50) in assay [1] (CAL-27, 72 h) was 6.17 ± 0.51 µM; in assay [2], 39.2 ± 7.16 µM; in assay [3], 244 ± 41 nM; in assay [4] it was 63 ± 1 nM; in assay [5] (U-251, 72 h), 27 ± 3.55 µM.

With `O=C(CCCCCNC(=O)c1ncn2c(=O)n(CCCl)nnc12)NO` [Compound 3 g], the IC50 was found to be 29 ± 3.73 µM in assay [1] (setting [6]); 262 ± 75.6 µM in assay [2] (setting [7]); 681 ± 15 nM in assay [3] (setting [8]); 94 ± 2 nM in assay [4] (setting [9]); 140 ± 17.8 µM in assay [5] (setting [10]).

As for `O=C(CCCCCNC(=O)CCCc1ccc(N(CCCl)CCCl)cc1)NO` [Compound 3 h], the IC50 in assay [1] (CAL-27, 72 h) is 7.5 ± 0.62 µM; in assay [2], 43.9 ± 15.3 µM; in assay [3], 444 ± 53 nM; in assay [4], 121 ± 8 nM; in assay [5] (U-251, 72 h), 25.1 ± 3.27 µM.

Consider `NC(=O)c1ncn2c(=O)n(CCCl)nnc12` [MTZ, mitozolomide, reference compound], for which the IC50 in assay [1] (setting [6]) is 3.56 ± 0.29 µM; in assay [2] (setting [7]), 57.4 ± 9.51 µM; in assay [5] (setting [10]), 84.5 ± 7.3 µM.

For `O=C(NO)c1ccc(CNC(=O)c2ncn3c(=O)n(CCCl)nnc23)cc1` [Compound 3 b], the IC50 in assay [1] (setting [6]) came out at 16.8 ± 3.62 µM; in assay [2] (setting [7]), 147 ± 19.7 µM; in assay [3] (setting [8]) it was 394 ± 20 nM; in assay [4] (setting [9]) it was 23 ± 2 nM; in assay [5] (setting [10]) it was 44.5 ± 8.94 µM.

For the molecule `O=C(O)CCCc1ccc(N(CCCl)CCCl)cc1` [CAB, chlorambucil, reference compound], the IC50 in assay [1] (CAL-27, 72 h) is 23.7 ± 2.26 µM; in assay [2], 86.3 ± 17.5 µM; in assay [5] (U-251, 72 h), 48.7 ± 11.9 µM.

Turning to `O=C(CCCc1ccc(N(CCCl)CCCl)cc1)NCc1ccc(C(=O)NO)cc1` [Compound 3 c], the IC50 in assay [1] (CAL-27, 72 h) came out at 6.89 ± 1.04 µM; in assay [2], 23.9 ± 3.41 µM; in assay [3], 518 ± 65 nM; in assay [4] it was 32 ± 3 nM; in assay [5] (U-251, 72 h) it was 22 ± 3.09 µM.
